{"source": "patent US12264142B2", "about": "“Heterocyclic compounds” (FLORATEK PHARMA SA, priority 2019, dated 2025)", "key": {"KEGG pathways": {"tested_on": "KEGG pathways", "assay": "KEGG pathway mapping of differentially-expressed genes", "format": "in vivo, C. elegans", "source_text": "To determine which among recognized aging-related pathways were most likely modulated by treatment with the SND303 compound, and to estimate their relative contributions, two approaches were undertaken. In one approach, the genes differentially expressed after treatment were mapped to pathways in the KEGG database, a curated knowledgebase of biological pathways. This placed the transcriptomic data within the context of well-characterized biological pathways, particularly several related to longevity.\nSeveral of these genes matched to the canonical longevity pathways as curated in KEGG (FIG. 5). […] At Day 10, however, many more pathways were represented among differentially-expressed genes and each individual pathway was more richly populated with differentially-expressed genes. The most prominent increase was in the expression of genes involved in Oxidative Phosphorylation, possibly indicating maintenance of mitochondrial function. In addition, several components of the canonical Longevity Regulating Pathway are represented. With closer examination of these the differential expression of the gene encoding Target of Rapamycin (TOR) is notable. When the TOR pathways itself was expanded, several more differentially-expressed genes were represented that were not explicitly indicated in the Longevity Regulating Pathway. Applying this process with the other pathways and modules linked to the Longevity Regulating Pathway, a coherent hypothetical pathway of action emerges."}, "aging-related pathways": {"tested_on": "aging-related pathways", "assay": "Pathway transcriptional profile score analysis", "format": "in vivo, C. elegans", "source_text": "In the second approach, the transcriptomic profile of worms treated with SND303 compound was compared with published transcriptomes in which specific aging-related pathways have been manipulated. In contrast with the first approach, this blindly scores how the data fits with published transcriptomic signatures of aging.\nFrequently cited and relevant studies analyzing the transcriptomic signatures of aging-related pathways in C. elegans were selected for this analysis. […] To generate a transcriptional profile score, the log fold change for each key gene in each pair of comparison (e.g. SND303 vs. negative control) is multiplied by a direction-specific factor and assigned a positive or negative value based on whether the change is in the same direction as reported in the literature. All the gene scores for a given pathway are summed up to produce one aggregated score per pathway for each pair of comparison."}, "[1]": {"tested_on": "N2 wild type strain of worms", "assay": "C. elegans life span (survival) assay, manual scoring (SND301)", "format": "in vivo", "method": "The survival assay was conducted in the presence of 50 μM SND301 with measurements of live, dead, and censored worms at time points every 2-3 days from the start of adulthood.\nThioflavin T was used in the assay as a positive control [Gamir-Morralla A et al, 2019, “Effects of Thioflavin T and GSK-3 Inhibition on Lifespan and Motility in a Caenorhabditis elegans Model of Tauopathy”, J Alzheimers Dis Rep., 3(1): 47-57]. Vehicle 25% and 1% DMSO were used as controls and represent the vehicles in which compounds and bacteria or bacteria alone respectively were resuspended. The final DMSO concentration in the agar plates was 0.5% and 0.02% respectively.\n5 mM DMSO stock solutions for each compound were prepared in high-grade DMSO. Stocks were protected from light and stored in glass vials at 21° C. in a temperature-controlled room (to avoid freeze/thaw of DMSO). A fresh stock was prepared at the start of each experiment and stored for <1 week.\nThe lifespan assay was designed and performed according to published and validated methods with modifications for chemical treatment [Amrit F R G et al, 2014, “The C. elegans lifespan assay toolkit”, METHODS 68, 465-475; Leukanic, et. Al, “Manual Lifespan Assay Standard Operating Procedure”, Caenorhabditis Intervention Testing Program, https://figshare.com/articles/7_CITP_SOP_Manual_Lifespan_Assay/9738197/1]. Plates were seeded with compound dissolved in 25% DMSO and bacteria. The DMSO diffused through the agar to reach a final concentration of 0.5%. Synchronized day 1 adult worms were transferred to seeded plates containing compound and allowed to lay eggs for 2 hours (Day 0, “hatchoff”). The young adults were then removed, and the eggs were incubated at 20° C. until they had reached the young adult stage (day 3). 200 young adult worms per treatment were transferred to 8 fresh seeded 35 mm dishes with compound and 50 μM 5-Fluorodeoxyuridine to suppress progeny. […] Worms that were missing, stuck to the dish, burrowed, injured, or exploded were scored as censored and removed from the plate. To maintain chemical exposure at the experimental concentrations, worms were transferred every other scoring day to new seeded plates with compound."}, "C. elegans": {"tested_on": "C. elegans", "settings": "Ryu et al 2016; cited from earlier work"}, "[2]": {"settings": "Day 10, against negative control"}, "[3]": {"settings": "end of the study, SND301 and Urolithin A 50 μM"}}, "note": "Entries after “also recorded” stand apart in the source; their conditions may differ.", "data": [{"molecule": "CC(C)NC(=O)Oc1ccc2c(c1)oc(=O)c1cc(OC(=O)NC(C)C)ccc12", "note": "[SND303]", "values": [{"measurement": "cel00980 Metabolism of xenobiotics by cytochrome P450: differentially-expressed genes", "setting": "KEGG pathways; Day 3", "value": "gst-4; Glutathione S-transferase 4; also recorded: sodh-1; Alcohol dehydrogenase 1; also recorded: gst-5; Probable glutathione S-transferase 5"}, {"measurement": "cel04212 Longevity regulating pathway: differentially-expressed genes", "setting": "KEGG pathways; Day 3", "value": "gst-4; Glutathione S-transferase 4; also recorded: gst-5; Probable glutathione S-transferase 5; also recorded: ctl-2; Peroxisomal catalase 1"}, {"measurement": "cel00190 Oxidative phosphorylation: differentially-expressed genes", "setting": "KEGG pathways; Day 10", "value": 15, "unit": "genes"}, {"measurement": "cel03040 Spliceosome: differentially-expressed genes", "setting": "KEGG pathways; Day 10", "value": 10, "unit": "genes"}, {"measurement": "cel03050 Proteasome: differentially-expressed genes", "setting": "KEGG pathways; Day 10", "value": 11, "unit": "genes"}, {"measurement": "cel04010 MARK signaling pathway: differentially-expressed genes", "setting": "KEGG pathways; Day 10", "value": "mtk-1; Protein kinase domain-containing protein; also recorded: fln-2; FiLamiN (actin binding protein) homolog; also recorded: nsy-1; Mitogen-activated protein; also recorded: mnk-1; MAP kinase-interacting; also recorded: pxf-1; Rap guanine nucleotide exchange factor; also recorded: ced-2; Cell death abnormality protein 2; also recorded: daf-2; Insulin-like receptor subunit beta"}, {"measurement": "cel04120 Ubiquitin mediated proteolysis: differentially-expressed genes", "setting": "KEGG pathways; Day 10", "value": 6, "unit": "genes"}, {"measurement": "cel04140 Autophagy: differentially-expressed genes", "setting": "KEGG pathways; Day 10", "value": "let-363; Target of rapamycin homolog; also recorded: daf-15; Raptor_N domain-containing protein; also recorded: pek-1; Eukaryotic translation initiation; also recorded: atg-2; Autophagy-related protein 2; also recorded: cpl-1; Cathepsin L-like; also recorded: epg-7; ATG11 domain-containing protein; also recorded: ragc-1; RAs-related GTP binding; also recorded: unc-51; Serine/threonine-protein kinase unc-51"}, {"measurement": "cel04141 Protein processing in endoplasmic reticulum: differentially-expressed genes", "setting": "KEGG pathways; Day 10", "value": "pdi-2; Protein disulfide-isomerase 2; also recorded: cup-2; Derlin-1; also recorded: skr-2; SKp1 Related (ubiquitin ligase; also recorded: pek-1; Eukaryotic translation initiation; also recorded: uggt-1; UDP-Glucose Glycoprotein; also recorded: nsy-1; Mitogen-activated protein kinase; also recorded: rbx-1; RING-box protein 1; also recorded: Protein transport protein Sec61 subunit gamma"}, {"measurement": "cel04150 mTOR signaling pathway: differentially-expressed genes", "setting": "KEGG pathways; Day 10", "value": "let-363; Target of rapamycin homolog; also recorded: daf-15; Raptor_N domain-containing protein; also recorded: rict-1; RICTOR_V domain-containing protein; also recorded: T08A11.1; DEP domain-containing protein; also recorded: ragc-1; RAs-related GTP binding; also recorded: Y32H12A.8; WD_Repeats domain-containing; also recorded: daf-2; Insulin-like receptor subunit beta; also recorded: unc-51; Serine/threonine-protein kinase unc-51"}, {"measurement": "cel04212 Longevity regulating pathway-worm: differentially-expressed genes", "setting": "KEGG pathways; Day 10", "value": "let-363; Target of rapamycin homolog; also recorded: sod-2; Superoxide dismutase [Mn] 1, mitochondrial; also recorded: gst-7; Probable glutathione S-transferase 7; also recorded: fat-6; Delta(9)-fatty-acid desaturase fat-6; also recorded: daf-2; insulin-like receptor subunit beta; also recorded: unc-51; Serine/threonine-protein kinase unc-51"}, {"measurement": "cel04361 Axon regeneration: differentially-expressed genes", "setting": "KEGG pathways; Day 10", "value": 7, "unit": "genes"}, {"measurement": "Transcriptional profile score, overall", "setting": "aging-related pathways; Day 3, against negative control", "value": "little deviation from the control"}, {"measurement": "Transcriptional profile score, Oxidative stress response", "setting": "aging-related pathways; [2]", "value": "strong negative score"}, {"measurement": "Transcriptional profile score, overall", "setting": "aging-related pathways; [2]", "value": "greatest overall profile contrast with control"}]}, {"molecule": "O=c1oc2cc(O)ccc2c2ccc(O)cc12", "note": "[Urolithin A, reference compound]", "values": [{"measurement": "Death events", "setting": "[1]; Table 1A, at a certain point during the study, N2, SND301 and Urolithin A 50 μM", "value": 47}, {"measurement": "% Complete", "setting": "[1]; Table 1A, deaths attributed to aging from total worm population, at a certain point during the study, N2", "value": 25.7, "unit": "%"}, {"measurement": "Death events", "setting": "[1]; Table 1B, end of the study, SND301 and Urolithin A 50 μM", "value": 178}, {"measurement": "Maximum life span", "setting": "[1]; [3]", "value": 35, "unit": "days"}, {"measurement": "Median lifespan", "setting": "[1]; [3]", "value": 21, "unit": "days"}, {"measurement": "Effect on lifespan", "setting": "C. elegans", "value": "extended lifespan"}]}]}
